Measured values as given in article PMC11115308 (Biochemical pharmacology, 2023).

Columns and labels:
CXCR4 [1] = target: T1, CXCR4 (Homo sapiens, UniProt P61073); test: β-Arrestin-2 recruitment in Tango CXCR4-bla U2OS cells; type: cell-based; settings: antagonist at 1 μM
CXCR4 [2] = target: T1, CXCR4; type: cell-based; settings: log value

T1 sequence (P61073 whole entry): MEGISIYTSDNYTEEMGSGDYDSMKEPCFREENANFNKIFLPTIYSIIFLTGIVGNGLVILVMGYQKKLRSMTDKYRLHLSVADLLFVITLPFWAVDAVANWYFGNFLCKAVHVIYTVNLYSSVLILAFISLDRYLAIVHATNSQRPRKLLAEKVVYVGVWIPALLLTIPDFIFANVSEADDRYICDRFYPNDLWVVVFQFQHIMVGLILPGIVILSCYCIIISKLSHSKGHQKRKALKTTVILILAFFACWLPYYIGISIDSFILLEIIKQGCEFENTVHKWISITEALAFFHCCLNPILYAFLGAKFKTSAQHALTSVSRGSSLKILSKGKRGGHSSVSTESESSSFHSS

Compound	effect on CXCL12 β-arrestin response (CXCR4 [1])	inhibition of forskolin-stimulated cAMP production log IC50 (CXCR4 [2]) [M]
c1cc(CN2CCCNCCNCCCNCC2)ccc1CN1CCCNCCNCCCNCC1 [AMD3100]	abolishes CXCL12 β-arrestin response	
CXCL12: C-X-C Motif Chemokine Ligand 12, chemokine that binds CXCR4; endogenous ligand		−8.9 ± 0.1
